Test results published in patent US20240174671A1, “New 2,3-Dihydro-1H-pyrrolo[3,2-b]pyridine Derivatives as Sigma Ligands” (ACONDICIONAMIENTO TARRASENSE, priority 2021, published 2024).

Columns and labels:
[1] = biological target: T1, human σ1 receptor (Homo sapiens, UniProt Q99720); assay: Human σ1 receptor radioligand assay ([3H](+)-pentazocine); format: binding; settings: transfected HEK-293 membranes, 5 nM [3H](+)-pentazocine, 37° C., 120 minutes; read-out: Binding σ-[…] (binding to σ1-receptor expressed as Ki)
T1 construct: expressed in transfected cells; host or cells: HEK-293
T1 sequence (Q99720 whole entry): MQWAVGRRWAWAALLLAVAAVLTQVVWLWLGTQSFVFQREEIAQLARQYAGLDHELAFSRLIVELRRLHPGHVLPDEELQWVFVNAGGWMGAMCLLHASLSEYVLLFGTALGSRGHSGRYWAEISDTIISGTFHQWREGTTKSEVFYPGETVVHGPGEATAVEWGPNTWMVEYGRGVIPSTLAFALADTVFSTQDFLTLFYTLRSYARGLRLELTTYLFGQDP
Description: Human σ1 Receptor Radioligand Assay
(§1) NBS (non-specific binding) was measured by adding 10 μM haloperidol. The binding of the test compound was measured at either one concentration (% inhibition at 1 or 10 µM) or five different concentrations to determine affinity values (Ki). Plates were incubated at 37° C. for 120 minutes. After the incubation period, the reaction mix was then transferred to MultiScreen HTS, FC plates (Millipore), filtered and plates were washed 3 times with ice-cold 10 mM Tris-HCL (pH7.4). Filters were dried and counted at approximately 40% efficiency in a MicroBeta scintillation counter (Perkin-Elmer) using EcoScint liquid scintillation cocktail.

[2] = biological target: T2, human σ2/TMEM97 receptor (Homo sapiens, UniProt Q5BJF2); assay: Binding assay to human σ2/TMEM97 receptor ([3H]-DTG); settings: transfected HEK-293 membranes, 10 nM [3H]-DTG, 25° C., 120 minutes; read-out: Binding σ-[…] (binding to σ2-receptor expressed as Ki)
T2 construct: expressed in transfected cells; host or cells: HEK-293
T2 sequence (Q5BJF2 whole entry): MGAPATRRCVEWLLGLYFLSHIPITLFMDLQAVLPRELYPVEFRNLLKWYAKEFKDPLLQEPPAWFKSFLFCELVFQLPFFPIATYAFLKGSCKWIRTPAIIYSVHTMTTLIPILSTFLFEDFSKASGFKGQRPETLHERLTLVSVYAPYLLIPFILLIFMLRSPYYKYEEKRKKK
Description: Binding Assay to Human σ2/TMEM97 Receptor.
as §1, with “Transfected HEK-293 membranes (15 μg) were incubated with 10 nM [^3H]-1,3-Di-o-tolylguanidine (DTG) in assay buffer containing Tris-HCl 50 mM at pH 8.0. NSB” for “NBS”, “25°” for “37°”, “was” for “was then”, “and” for “and plates were”, “(pH 8.0).” for “(pH7.4).”

Structure (SMILES) | Ki [1] [nM] | Ki [2] [nM]
CC1(C)CN(C(=O)N2CCC3(CCN(Cc4cc(F)ccc4F)CC3)CC2)c2cccnc21 [Example 164, (9-(2,5-difluorobenzyl)-3,9-diazaspiro[5.5]undecan-3-yl)(3,3-dimethyl-2,3-dihydro-1H-pyrrolo[3,2-b]pyridin-1-yl)methanone] | < 100 | < 100
CC1(C)CN(C(=O)C2CN(Cc3ccccc3)C2)c2cccnc21 [Example 132, (1-benzylazetidin-3-yl)(3,3-dimethyl-2,3-dihydro-1H-pyrrolo[3,2-b]pyridin-1-yl)methanone] | < 100 | 100 to 500
Cc1ccc2c(n1)C(C)(C)CN2C(=O)NC1CCN(CC(C)C)CC1 [Example 41, N-(1-isobutylpiperidin-4-yl)-3,3,5-trimethyl-2,3-dihydro-1H-pyrrolo[3,2-b]pyridine-1-carboxamide] | 100 to 500 | > 1000
Cc1ccc2c(n1)C(C)(C)CN2C(=O)[C@H]1CC[C@H](N(C)Cc2ccc(F)c(C#N)c2)CC1 [Example 181, 2-fluoro-5-((methyl((1r,4r)-4-(3,3,5-trimethyl-2,3-dihydro-1H-pyrrolo[3,2-b]pyridine-1-carbonyl)cyclohexyl)amino)methyl)benzonitrile] | < 100 | < 100
Cc1ccc2c(n1)C(C)(C)CN2C(=O)[C@H]1C[C@H](N(C)Cc2ccccc2)C1 [Example 137, ((1r,3r)-3-(Benzyl(methyl)amino)cyclobutyl)(3,3,5-trimethyl-2,3-dihydro-1H-pyrrolo[3,2-b]pyridin-1-yl)methanone] | < 100 | 100 to 500
Cc1ccc2c(n1)C(C)(C)CN2C(=O)N1C[C@H]2CN(Cc3ccccc3)C[C@H]2C1 [Example 36, ((3aR,6aS)-5-benzylhexahydropyrrolo[3,4-c]pyrrol-2(1H)-yl)(3,3,5-trimethyl-2,3-dihydro-1H-pyrrolo[3,2-b]pyridin-1-yl)methanone] | 100 to 500 | 500 to 1000
Cc1ccc2c(n1)C(C)(C)CN2C(=O)N1CCC2(CCN(Cc3ccccc3)CC2)CC1 [Example 57, (9-benzyl-3,9-diazaspiro[5.5]undecan-3-yl)(3,3,5-trimethyl-2,3-dihydro-1H-pyrrolo[3,2-b]pyridin-1-yl)methanone] | < 100 | < 100
CN(C)[C@@H](CNC(=O)N1CC(C)(C)c2ncccc21)c1ccccc1 [Example 5, (R)—N-(2-(dimethylamino)-2-phenylethyl)-3,3-dimethyl-2,3-dihydro-1H-pyrrolo[3,2-b]pyridine-1-carboxamide] | 100 to 500 | > 1000
CC1(C)CN(C(=O)N2CCC3(CCN(Cc4ccc(C#N)c(F)c4)CC3)CC2)c2cccnc21 [Example 146, 4-((9-(3,3-dimethyl-2,3-dihydro-1H-pyrrolo[3,2-b]pyridine-1-carbonyl)-3,9-diazaspiro[5.5]undecan-3-yl)methyl)-2-fluorobenzonitrile] | < 100 | 100 to 500
CC1(C)CN(C(=O)NC2CC3(CCN(Cc4ccccc4)CC3)C2)c2cccnc21 [Example 104, N-(7-benzyl-7-azaspiro[3.5]nonan-2-yl)-3,3-dimethyl-2,3-dihydro-1H-pyrrolo[3,2-b]pyridine-1-carboxamide] | 100 to 500 | 100 to 500
CCN(CC)C(CNC(=O)N1CC(C)(C)c2nc(C)ccc21)c1ccccc1 (centres unmarked) [Example 9, N-(2-(diethylamino)-2-phenylethyl)-3,3,5-trimethyl-2,3-dihydro-1H-pyrrolo[3,2-b]pyridine-1-carboxamide] | < 100 | > 1000
CC1(C)CN(C(=O)N2CCC3(CCN(Cc4cccc(F)c4)CC3)C2)c2cccnc21 [Example 152, (3,3-dimethyl-2,3-dihydro-1H-pyrrolo[3,2-b]pyridin-1-yl)(8-(3-fluorobenzyl)-2,8-diazaspiro[4.5]decan-2-yl)methanone] | < 100 | < 100
Cc1ccc2c(n1)C(C)(C)CN2C(=O)N1CCC2(CCN(Cc3ccc(C#N)c(F)c3)CC2)CC1 [Example 163, 2-fluoro-4-((9-(3,3,5-trimethyl-2,3-dihydro-1H-pyrrolo[3,2-b]pyridine-1-carbonyl)-3,9-diazaspiro[5.5]undecan-3-yl)methyl)benzonitrile] | 100 to 500 | 100 to 500
Cc1ccc2c(n1)C(C)(C)CN2C(=O)N1CC[C@H](N(C)Cc2ccccc2)C1 [Example 39, (S)-(3-(benzyl(methyl)amino)pyrrolidin-1-yl)(3,3,5-trimethyl-2,3-dihydro-1H-pyrrolo[3,2-b]pyridin-1-yl)methanone] | 100 to 500 | > 1000
Cc1ccc2c(n1)C(C)(C)CN2C(=O)[C@H]1C[C@@H](NCc2ccccc2)C1 [Example 136, ((1s,3s)-3-(benzylamino)cyclobutyl)(3,3,5-trimethyl-2,3-dihydro-1H-pyrrolo[3,2-b]pyridin-1-yl)methanone] | 100 to 500 | 100 to 500
Cc1ccc2c(n1)C(C)(C)CN2C(=O)N1CCC(N(C)CCC(C)C)CC1 [Example 67, (4-(isopentyl(methyl)amino)piperidin-1-yl)(3,3,5-trimethyl-2,3-dihydro-1H-pyrrolo[3,2-b]pyridin-1-yl)methanone] | < 100 | < 100
Cc1ccc2c(n1)C(C)(C)CN2C(=O)[C@H]1CC[C@H](N(C)Cc2ccc(F)c(F)c2)CC1 [Example 170, ((1r,4r)-4-((3,4-difluorobenzyl)(methyl)amino)cyclohexyl)(3,3,5-trimethyl-2,3-dihydro-1H-pyrrolo[3,2-b]pyridin-1-yl)methanone] | < 100 | < 100
CN(Cc1ccccc1)[C@H]1CC[C@H](C(=O)N2CC(C)(C)c3ncccc32)CC1 [Example 138, ((1r,4r)-4-(benzyl(methyl)amino)cyclohexyl)(3,3-dimethyl-2,3-dihydro-1H-pyrrolo[3,2-b]pyridin-1-yl)methanone] | < 100 | < 100
CN(CCc1ccccc1)C1CCN(C(=O)N2CC(C)(C)c3ncccc32)CC1 [Example 52, (3,3-dimethyl-2,3-dihydro-1H-pyrrolo[3,2-b]pyridin-1-yl)(4-(methyl(phenethyl)amino)piperidin-1-yl)methanone] | 100 to 500 | < 100
Cc1ccc2c(n1)C(C)(C)CN2C(=O)N1CCC(N(C)CC2CCOCC2)CC1 [Example 65, (4-(methyl((tetrahydro-2H-pyran-4-yl)methyl)amino)piperidin-1-yl)(3,3,5-trimethyl-2,3-dihydro-1H-pyrrolo[3,2-t]pyridin-1-yl)methanone] | 100 to 500 | < 100
Cc1ccc2c(n1)C(C)(C)CN2C(=O)[C@H]1CC[C@H](N(C)Cc2ncccc2F)CC1 [Example 178, ((1r,4r)-4-(((3-fluoropyridin-2-yl)methyl)(methyl)amino)cyclohexyl)(3,3,5-trimethyl-2,3-dihydro-1H-pyrrolo[3,2-b]pyridin-1-yl)methanone] | < 100 | 100 to 500
CC1(C)CN(C(=O)N2CCC3(CCN(Cc4ccccc4)CC3)C2)c2cccnc21 [Example 89, (8-benzyl-2,8-diazaspiro[4.5]decan-2-yl)(3,3-dimethyl-2,3-dihydro-1H-pyrrolo[3,2-b]pyridin-1-yl)methanone] | < 100 | < 100
Cc1ccc2c(n1)C(C)(C)CN2C(=O)N1CC2(CN(Cc3ccccc3)C2)C1 [Example 81, (6-benzyl-2,6-diazaspiro[3.3]heptan-2-yl)(3,3,5-trimethyl-2,3-dihydro-1H-pyrrolo[3,2-b]pyridin-1-yl)methanone] | < 100 | 500 to 1000
CC1(C)CN(C(=O)N2CCC3(CCN(CC4CCOCC4)CC3)C2)c2cccnc21 [Example 144, (3,3-dimethyl-2,3-dihydro-1H-pyrrolo[3,2-b]pyridin-1-yl)(8-((tetrahydro-2H-pyran-4-yl)methyl)-2,8-diazaspiro[4.5]decan-2-yl)methanone] | 100 to 500 | < 100
Cc1ccc2c(n1)C(C)(C)CN2C(=O)N1CCC(N(C)Cc2cccc(F)c2)CC1 [Example 116, (4-((3-fluorobenzyl)(methyl)amino)piperidin-1-yl)(3,3,5-trimethyl-2,3-dihydro-1H-pyrrolo[3,2-b]pyridin-1-yl)methanone] | 500 to 1000 | < 100
CC1(C)CN(C(=O)N2CCC3(CCN(Cc4ccc(F)c(C#N)c4)CC3)C2)c2cccnc21 [Example 143, 5-((2-(3,3-dimethyl-2,3-dihydro-1H-pyrrolo[3,2-b]pyridine-1-carbonyl)-2,8-diazaspiro[4.5]decan-8-yl)methyl)-2-fluorobenzonitrile] | 100 to 500 | < 100
CC1(C)CN(C(=O)NC2CCN(Cc3ccccc3)CC2)c2ccc(C#N)nc21 [Example 30, N-(1-benzylpiperidin-4-yl)-5-cyano-3,3-dimethyl-2,3-dihydro-1H-pyrrolo[3,2-b]pyridine-1-carboxamide] | < 100 | –
